Consider 35 compounds from patent US7470680B2, “Constrained compounds as CGRP-receptor antagonists” (Bristol-Myers Squibb Company, priority 2006, dated 2008).

The target in assay [1] is T1, CGRP receptor (Homo sapiens, UniProt O60894+Q16602). Put plainly: Cyclic AMP functional antagonism assay in SK-N-MC cells. It counts as cell-based. Also noted: SK-N-MC cells that endogenously express the human CGRP receptor; endogenous in cells; host or cells: SK-N-MC cells. The note with it: Table 2; inhibition of 0.3 nM CGRP-induced cAMP in SK-N-MC cells; read-out: cAMP Function IC50. Here is the method: Cyclic AMP Functional Antagonism Assay. Antagonism of the compounds of invention was determined by measuring the formation of cyclic AMP (adenosine 3′5′-cyclic monophosphate) in SK-N-MC cells that endogenously express the human CGRP receptor. CGRP receptor complex is coupled with Gs protein and CGRP binding to this complex leads to the cyclic AMP production via Gs-dependent activation of an adenylate cyclase (Juaneda C. et al., TiPS, 2000; 21:432-438). Consequently, CGRP receptor antagonists inhibit CGRP—induced cyclic AMP formation in SK-N-MC cells (Doods H, et al., Br J Pharmacol, 2000; 129(3):420-423). For cyclic AMP measurements SK—N-MC cells were incubated with 0.3 nM CGRP alone or in the presence of various concentrations of the compounds of invention for 30 min at room temperature. Compounds of invention were pre-incubated with SK—N-MC cells for 15 min before the addition of CGRP to allow receptor occupancy (Edvinsson et al., Eur J Pharmacol, 2001, 415:39-44). Cyclic AMP was extracted using the lysis reagent and its concentration was determined by radioimmunoassay using RPA559 cAMP SPA Direct Screening Assay Kit (Amersham Pharmacia Biotech). IC50 values were calculated using Excel fit.

Assay [2] has as its target T1, CGRP receptor. Put plainly: CGRP radioligand binding assay ([125I]-CGRP displacement, SK-N-MC homogenate). Also on record: endogenous in cells; host or cells: SK-N-MC cells (homogenate/membrane pellet). The note with it: displacement of [125I]-CGRP, SK-N-MC membranes. Here is the method:
CGRP Binding Assay. Tissue Culture. SK-N-MC cells were grown at 37° C. in 5% CO2 as a monolayer in medium consisting of MEM with Earle's salts and L-glutamine (Gibco) supplemented with 10% fetal bovine serum (Gibco). Cell Pellets. The cells were rinsed twice with phosphate-buffered saline (155 mM NaCl, 3.3 mM Na2HPO4, 1.1 mM KH2PO4, pH 7.4), and incubated for 5-10 min. at 4° C. in hypotonic lysis buffer consisting of 10 mM Tris (pH 7.4) and 5 mM EDTA. The cells were transferred from plates to polypropylene tubes (16×100 mm) and homogenized using a polytron. Homogenates were centrifuged at 32,000×g for 30 min. The pellets were resuspended in cold hypotonic lysis buffer with 0.1% mammalian protease inhibitor cocktail (Sigma) and assayed for protein concentration. The SK-N-MC homogenate was then aliquoted and stored at −80° C. until needed.
Radioligand Binding Assay. The compounds of invention were solubilized and carried through serial dilutions using 100% DMSO. Aliquots from the compound serial dilutions were further diluted 25 fold into assay buffer (50 mM Tris-Cl pH 7.5, 5 mM MgCl2, 0.005% Triton X-100) and transferred (volume 50 μl) into 96 well assay plates. [^125I]-CGRP (Amersham Biosciences) was diluted to 60 pM in assay buffer and a volume of […] was added to each well. SK-N-MC pellets were thawed, diluted in assay buffer with fresh 0.1% mammalian protease inhibitor cocktail (Sigma), and homogenized again. SK-N-MC homogenate (5 μg/well) was added in a volume of 100 μl. The assay plates were then incubated at room temperature for 2 h. Assays were stopped by addition of excess cold wash buffer (20 mM Tris-Cl pH 7.5, 0.1% BSA) immediately followed by filtration over glass fiber filters (Whatman GF/B) previously soaked in 0.5% PEI. Non-specific binding was defined with 1 μM beta-CGRP. Protein bound radioactivity was determined using a gamma or scintillation counter. The IC50 was defined as the concentration of a compound of invention required to displace 50% of radioligand binding.

Structures are written as SMILES.

T1 sequence (Q16602 23-461): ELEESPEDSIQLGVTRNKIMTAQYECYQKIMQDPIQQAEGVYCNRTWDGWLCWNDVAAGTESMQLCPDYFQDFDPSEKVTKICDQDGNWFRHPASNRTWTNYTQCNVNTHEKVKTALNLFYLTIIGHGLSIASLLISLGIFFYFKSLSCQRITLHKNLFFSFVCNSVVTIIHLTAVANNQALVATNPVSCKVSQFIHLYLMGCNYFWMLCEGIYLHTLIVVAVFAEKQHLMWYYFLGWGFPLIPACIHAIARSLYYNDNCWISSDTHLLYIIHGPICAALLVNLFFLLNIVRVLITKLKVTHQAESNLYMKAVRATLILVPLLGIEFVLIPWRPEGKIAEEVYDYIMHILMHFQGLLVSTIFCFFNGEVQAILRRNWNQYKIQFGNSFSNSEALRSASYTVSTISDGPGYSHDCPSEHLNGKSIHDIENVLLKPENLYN
T1 sequence (O60894 27-148): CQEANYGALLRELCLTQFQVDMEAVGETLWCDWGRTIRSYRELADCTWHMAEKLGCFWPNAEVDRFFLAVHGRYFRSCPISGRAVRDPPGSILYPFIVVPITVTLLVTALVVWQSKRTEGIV

With `O=C(C[C@@H]1Cc2cc(Cl)c3[nH]ncc3c2CN(Cc2ccncc2)C1=O)N1CCC(N2Cc3ccccc3NC2=O)CC1`, the half-maximal inhibitory concentration (IC50) at CGRP receptor [1] and on CGRP receptor [2] (Table 2) was 0.01 to 10 nM in each case.

As for `O=C(C[C@@H]1Cc2cc(Cl)c3[nH]ncc3c2CN(Cc2ccncc2)C1=O)N1CCC(n2cc(-c3ccccc3)[nH]c2=O)CC1`, the IC50 on CGRP receptor [1] and on CGRP receptor [2] (Table 2) was 0.01 to 10 nM in each case.

Regarding `CC(C)(C)CN1Cc2c(cc(Cl)c3[nH]ncc23)C[C@@H](CC(=O)N2CCC(c3cc4ccccc4[nH]c3=O)CC2)C1=O`, the IC50 at CGRP receptor [1] and on CGRP receptor [2] (Table 2) was 0.01 to 10 nM in each case.

Regarding `O=C(NC1Cc2ccc3[nH]ncc3c2CN(CCc2ccncc2)C1=O)N1CCC(N2Cc3ccccc3NC2=O)CC1` (stereo not shown), the IC50 at CGRP receptor [1] and on CGRP receptor [2] (Table 2) was 0.01 to 10 nM each time.

`CC(C)(C)CN1Cc2c(ccc3[nH]ncc23)CC(NC(=O)N2CCC(N3Cc4ccccc4NC3=O)CC2)C1=O` (stereo not shown): the IC50 at CGRP receptor [1] and at CGRP receptor [2] (Table 2) was 0.01 to 10 nM throughout.

Consider `CC(C)(C)CN1Cc2c(cc(Cl)c3[nH]ncc23)C[C@@H](CC(=O)N2CCC(N3Cc4ccccc4NC3=O)CC2)C1=O`, for which the IC50 on CGRP receptor [1] and on CGRP receptor [2] (Table 2) was 0.01 to 10 nM throughout.

For `O=C(C[C@@H]1Cc2cc(Cl)c3[nH]ncc3c2CN(Cc2ccncc2)C1=O)N1CCC(c2cc3ccccc3[nH]c2=O)CC1`, the IC50 on CGRP receptor [1] and at CGRP receptor [2] (Table 2) was 0.01 to 10 nM each time.

For the compound `CC(C)(C)CN1Cc2c(ccc3[nH]ncc23)C[C@@H](CC(=O)N2CCC(N3Cc4ccccc4NC3=O)CC2)C1=O` [drawing 84], the IC50 (as a rule, the concentration that inhibits the measured activity by half) at CGRP receptor [1] lay within 0.01 to 10 nM.

Regarding `CC(C)(C)CCN1Cc2c(ccc3[nH]ncc23)C[C@@H](NC(=O)N2CCC(N3Cc4ccccc4NC3=O)CC2)C1=O`, the 50% inhibitory concentration (IC50) at CGRP receptor [1] and on CGRP receptor [2] (Table 2) was 0.01 to 10 nM each time.

On to `CC(C)(C)CN1Cc2c(cc(Cl)c3[nH]ncc23)C[C@@H](CC(=O)N2CCC(n3cc(-c4ccccn4)[nH]c3=O)CC2)C1=O`, for which the IC50 on CGRP receptor [1] and on CGRP receptor [2] (Table 2) was 0.01 to 10 nM throughout.

Regarding `CC(C)(C)CN1Cc2c(cc(Cl)c3[nH]ncc23)C[C@@H](CC(=O)N2CCC3(CC2)NC(=O)Nc2ccccc23)C1=O`, the IC50 on CGRP receptor [1] and at CGRP receptor [2] (Table 2) was 0.01 to 10 nM each time.

`CC(C)(C)CN1Cc2c(cc(Cl)c3[nH]ncc23)C[C@@H](CC(=O)N2CCC(N3Cc4cccc(F)c4NC3=O)CC2)C1=O`: the concentration for half-maximal inhibition (IC50) on CGRP receptor [1] and on CGRP receptor [2] (Table 2) was 0.01 to 10 nM in each case.

On CGRP receptor [2] (Table 2), `CC(C)(C)CN1Cc2c(cc(Cl)c3[nH]ncc23)C[C@@H](CC(=O)N2CCC(c3cc4ccc(Cl)cc4[nH]c3=O)CC2)C1=O` registered an IC50 of 0.01 to 10 nM.

Regarding `O=C(C[C@@H]1Cc2cc(Br)c3[nH]nc(Br)c3c2CN(CC(F)(F)F)C1=O)N1CCC(N2CCc3ccccc3NC2=O)CC1`, the IC50 at CGRP receptor [2] (Table 1) was 0.01 to 10 nM.

The compound `CC(C)(C)CN1Cc2c(cc(Cl)c3[nH]ccc23)C[C@@H](CC(=O)N2CCC(c3cc4sccc4[nH]c3=O)CC2)C1=O` showed an IC50 at CGRP receptor [2] (Table 1) of 0.01 to 10 nM.

For `O=C(C[C@@H]1Cc2cc(Cl)c3[nH]ncc3c2CN(Cc2ccncc2)C1=O)N1CCC(c2cc3cccc(F)c3[nH]c2=O)CC1`, the concentration for half-maximal inhibition (IC50) at CGRP receptor [2] (Table 2) is 0.01 to 10 nM.

On to `CCc1cc2c(c3cn[nH]c13)CN(CC(F)(F)F)C(=O)[C@H](CC(=O)N1CCC(c3cc4cccc(F)c4[nH]c3=O)CC1)C2`, for which the IC50 at CGRP receptor [2] (Table 2) fell in the range of 10 to 100 nM.

Compound `O=C(C[C@@H]1Cc2cc(Cl)c3[nH]nc(Cl)c3c2CN(CC(F)(F)F)C1=O)N1CCC(N2CCc3ccccc3NC2=O)CC1` had an IC50 on CGRP receptor [2] (Table 1) of 0.01 to 10 nM.

For `COc1cc2ccccc2cc1C1CCN(C(=O)N[C@@H]2Cc3cc(Cl)c4[nH]ncc4c3CN(CC(C)(C)C)C2=O)CC1`, the IC50 on CGRP receptor [2] (Table 2) was above 1000 nM.

In turn, `O=C(C[C@@H]1Cc2cc(Cl)c3c(cnn3Cc3ccccc3)c2CN(CC(F)(F)F)C1=O)N1CCC(n2c(=O)[nH]c3ncccc32)CC1` returned an IC50 at CGRP receptor [2] (Table 1) of 10 to 100 nM.

In the case of `O=C(N[C@@H]1Cc2cc(Cl)c3[nH]ncc3c2CN(Cc2ccccc2)C1=O)N1CCC(N2Cc3ccccc3NC2=O)CC1`, the IC50 at CGRP receptor [1] and at CGRP receptor [2] (Table 2) was 0.01 to 10 nM throughout.

Regarding `N#Cc1cn(C2CCN(C(=O)C[C@@H]3Cc4cc(Cl)c5[nH]ncc5c4CN(CC(F)(F)F)C3=O)CC2)c(=O)[nH]1`, the IC50 on CGRP receptor [2] (Table 1) lay within 10 to 100 nM.

Regarding `CC(C)(C)CN1Cc2c(cc(Cl)c3[nH]ncc23)C[C@@H](NC(=O)N2CCC(N3Cc4ccccc4NC3=O)CC2)C1=O`, the IC50 on CGRP receptor [1] and on CGRP receptor [2] (Table 2) was 0.01 to 10 nM in each case.

Compound `CCn1ncc2c3c(cc(Cl)c21)C[C@@H](CC(=O)N1CCC(n2c(=O)[nH]c4ncccc42)CC1)C(=O)N(CC(F)(F)F)C3` returned a concentration for half-maximal inhibition (IC50) on CGRP receptor [2] (Table 1) of 10 to 100 nM.

Regarding `CC(C)(C)CN1Cc2c(cc(Cl)c3[nH]ncc23)C[C@@H](CC(=O)N2CCC(n3cc(-c4ccccc4)[nH]c3=O)CC2)C1=O`, the IC50 on CGRP receptor [1] and at CGRP receptor [2] (Table 2) was 0.01 to 10 nM in each case.

As to `O=C(C[C@@H]1Cc2cc(Cl)c3[nH]ncc3c2CN(Cc2ncc[nH]2)C1=O)N1CCC(N2Cc3ccccc3NC2=O)CC1`, the IC50 on CGRP receptor [1] and on CGRP receptor [2] (Table 2) was 0.01 to 10 nM in each case.

Regarding `CC(C)(C)CN1Cc2c(cc(Cl)c3[nH]ncc23)C[C@@H](CC(=O)N2CCC(N3Cc4ccccc4CC3=O)CC2)C1=O`, the IC50 on CGRP receptor [1] and on CGRP receptor [2] (Table 2) was 0.01 to 10 nM throughout.

`O=C(C[C@@H]1Cc2cc(Cl)c3[nH]ncc3c2CN(CC(F)(F)F)C1=O)N1CCC(n2c(=O)[nH]c3c(F)cccc32)CC1`: the IC50 at CGRP receptor [2] (Table 1) fell in the range of 0.01 to 10 nM.

With `O=C(C[C@@H]1Cc2cc(Br)c3[nH]ncc3c2CN(CC(F)(F)F)C1=O)N1CCC(c2cc3ccccc3[nH]c2=O)CC1`, on CGRP receptor [2] (Table 2), the IC50 lay in the range of 0.01 to 10 nM.

Regarding `O=C(C[C@@H]1Cc2cc(Cl)c3[nH]ncc3c2CN(Cc2ccncc2)C1=O)N1CCC(N2Cc3cccc(F)c3NC2=O)CC1`, the IC50 on CGRP receptor [1] and on CGRP receptor [2] (Table 2) was 0.01 to 10 nM throughout.

For the compound `CC(C)(C)CN1Cc2c(ccc3[nH]ncc23)C[C@@H](CC(=O)N2CCC(N3Cc4ccccc4NC3=O)CC2)C1=O` [drawing 135], on CGRP receptor [2] (Table 2), the half-maximal inhibitory concentration (IC50) fell in the range of 100 to 1000 nM.

With `COCCn1ncc2c3c(cc(Cl)c21)C[C@@H](CC(=O)N1CCC(N2CCc4ccccc4NC2=O)CC1)C(=O)N(CC(F)(F)F)C3`, the IC50 at CGRP receptor [2] (Table 1) lay in the range of 0.01 to 10 nM.

With `COCn1ncc2c3c(cc(Cl)c21)C[C@@H](CC(=O)N1CCC(N2CCc4ccccc4NC2=O)CC1)C(=O)N(CC(F)(F)F)C3`, at CGRP receptor [2] (Table 1), the IC50 was in the range of 10 to 100 nM.

On CGRP receptor [2] (Table 1), `O=C(C[C@@H]1Cc2cc(Br)c3[nH]nc(Br)c3c2CN(CC(F)(F)F)C1=O)N1CCC(n2c(=O)[nH]c3ncccc32)CC1` had an IC50 of 0.01 to 10 nM.

As to `Cn1ncc2c3c(cc(Cl)c21)C[C@@H](CC(=O)N1CCC(n2c(=O)[nH]c4ncccc42)CC1)C(=O)N(CC(F)(F)F)C3`, the IC50 on CGRP receptor [2] (Table 1) was 0.01 to 10 nM.
